From patent publication US9044142B2, “Surgical optical systems for detecting brain tumors” (Carl Zeiss Meditec AG, priority 2010, dated 2015)

Tests used:
GL261-luc glioma cells [1] = test: Intraoperative confocal endomicroscopy of ICG distribution in GL261-luc glioma mouse model; format: in vivo; conditions: 0.4 mg/kg intravenously, mice
Experimental: Thirty mice implanted with glioblastoma cells underwent craniectomies for exposure of tumors 14 days implantation. Tumors were clearly visible macroscopically and extended from cortical surface to deep basal brain structures. ICG was then administered using 0.4 mg/kg, equivalent to a standard single dose for humans (see, e.g., I. Roberts et al., Lancet 342, (1993)). […] Other regions presented a complex mixture of these patterns, with mostly normal-appearing brain punctuated by large pleomorphic cells consistent with an infiltrative margin or satellite tumor cell clusters surrounded by brain tissue. Importantly, patterns consistent with tumor morphology were also seen in brain tissue neighboring the tumor that appeared macroscopically normal as viewed via the surgical microscope. Critically, individual tumor cells within brain tissue could be identified within 475×475 μm field of view and a definitive tumor border delimited (FIGS. 2A-2D).
(§1) The GL261 cell line was obtained from the Division of Cancer Treatment and Diagnosis (DCTD) of the National Cancer Institute (NCl), Frederick, Md. […] The morphological, biochemical and growth characteristics of the GL261 mouse brain tumor model have been described elsewhere (see, e.g., M. Candolfi et al., J Neurooncol 85, 133 (November, 2007) and T. Szatmari et al., Cancer Sci 97, 546 (June, 2006)). To facilitate a quantitative measurement of the tumor growth rate, GL261 cells were made bioluminescent using the Lentiphos™ HT System (Clontech Laboratories, Inc., Mountain View, Calif.) with the Lenti-X™ HT Packaging Mix (Clontech Laboratories, Inc.) and the FUW-GL plasmid (a generous gift from the laboratory of J. B. Rubin, MD, PhD). The resulting GL261-luc cells were grown in Dulbecco's modified eagle's medium (DMEM, Invitrogen, Carlsbad, Calif.) supplemented with 10% tetracycline-free fetal calf serum (Clontech Laboratories, Inc) at 37° C. with 5% CO2. Cultured cells were harvested by trypsinization, washed once in phosphate-buffered saline (Invitrogen, Carlsbad, Calif.), and resuspended in DMEM without serum at a concentration of 1×10^7 cells/mL.
Animals were anesthetized by intraperitoneal injection of a mixture of 10 mg/kg xylazine and 80 mg/kg ketamine (Wyeth, Madison, N.J.). A 10-mm incision was made starting between the animal's eyes, exposing the bregma. A bur hole was made 0.1 mm posterior to the bregma and 2.3 mm right of the midline using a small animal stereotactic headframe (Model 900, David Kopf Instruments, Tujunga, Calif.). […]
This study was conducted in two main phases. The purpose of the first phase was to validate the use of ICG fluorescence in both intraoperative NIR macroscopic and miniaturized confocal endomicroscopic techniques for the identification of brain tumors in the mouse model. […]

[2] = humans; cited from earlier work
[3] = cited from earlier work
GL261-luc glioma cells [4] = test: Intraoperative NIR fluorescence macroscopy of ICG in GL261-luc glioma mouse model; format: in vivo
Excerpt: as §1
Animals were anesthetized by intraperitoneal injection of a mixture of 10 mg/kg xylazine and 80 mg/kg ketamine (Wyeth, Madison, N.J.). A 10-mm incision was made starting between the animal's eyes, exposing the bregma. […]
This study was conducted in two main phases. The purpose of the first phase was to validate the use of ICG fluorescence in both intraoperative NIR macroscopic and miniaturized confocal endomicroscopic techniques for the identification of brain tumors in the mouse model. […] Several intraoperative fluorescence macroscopic video loops, confocal images, and histological specimens were collected and analyzed from each mouse. […] Two cohorts of animals were used in the second phase: (1) six mice were used for intraoperative fluorescence macroscopy and (2) six mice were used for intraoperative confocal endomicroscopy. […]

Compound: CC1(C)C(/C=C/C=C/C=C/C=C2\N(CCCCS(=O)(=O)O)c3ccc4ccccc4c3C2(C)C)=[N+](CCCCS(=O)(=O)[O-])c2ccc3ccccc3c21 [ICG, Indocyanine green]
- ICG distribution in normal-appearing brain distant from the tumor (confocal endomicroscopy) (GL261-luc glioma cells [1]): predominantly intravascular ICG distribution
- ICG distribution within obvious tumor tissue (confocal endomicroscopy) (GL261-luc glioma cells [1]): extravascular ICG concentrated in clusters of cellular structures
- ICG fluorescence of tumor cells (confocal endomicroscopy) (GL261-luc glioma cells [1]; fifteen minutes after ICG injection): entire tumor mass was saturated with ICG
- ICG fluorescence of tumor cells (confocal endomicroscopy) (GL261-luc glioma cells [1]; immediately after ICG injection): fluorescence was seen only in a few clusters of tumor cells
- toxicity [2]: one of the least toxic substances ever administered to humans
- fraction of originally injected volume detectable in the blood ([3]; after 10 minutes): only a small fraction
- binding to globulins, preferentially to α1-lipoproteins ([3]; after intravenous injection): almost completely
- main source of clearance ([3]; in vivo): hepatic elimination
- metabolism in the body ([3]; in vivo): not metabolized
- intensity of macroscopic fluorescence in the central region of tumor (GL261-luc glioma cells [4]; 15 minutes after injection versus one minute): increased
- macroscopic tumor visibility with NIR light (GL261-luc glioma cells [4]; after ICG injection, tumor 14 days after implantation, mice): macroscopically visible
- macroscopic ICG fluorescence in vessels (GL261-luc glioma cells [4]; immediately after intravenous injection): could be observed in major vessels
